Assay results as given in US6894068B2, “Substituted benzimidazoles as non-nucleoside inhibitors of reverse transcriptase” (The United States of America as represented by the …, priority 1997, dated 2005).
Where two headings read alike, the source gives them in different places.

Key:
HIV-1 isolate K103N = assay: Cytopathic cell killing assay, MT-4 cells, isolate K103N; assay type: cell-based
Outline: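 Infect seeded cells with HIV-1 at a pre-determined MOI, add compound over a half-log concentration range, incubate six days at 37° C, then measure XTT formazan at 450 nm. Parallel wells of cells with drug alone assessed cytotoxicity.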

HIV-1 isolate V179D = assay: Cytopathic cell killing assay, MT-4 cells, isolate V179D; assay type: cell-based
Excerpt: (§1) The various HIV isolates tested in the Figures are those corresponding to wild-type virus (NL4-3) and the other strains listed by their RT mutations. The three 4×AZT isolates included in the Figures represent AZT drug-resistant variants. For example, the 4×AZT/L100I isolate has five mutations: four mutations confer increased resistance to AZT, and the other mutation is located within the NNRTI binding pocket. TZB and nevir. (nevirapine) are two well-known NNRTIs, included in this experiment for comparison purposes.
(§2) In this Example, the antiviral and cellular toxicity of NNRTIs was investigated, using the cytopathic cell killing assay described by Yang (Yang et al., “Characteristics of a Group of Non-nucleoside Reverse Transcriptase Inhibitors with Structural Diversity and Potent Anti-Human Immunodeficiency Virus Activity,” Leukemia 9:S75-S85 [1995]). Briefly, in this method cells (e.g., the CEM-SS cell line, available from the NIAID AIDS Research and Reference Program [ARRRP]) were seeded at a density of 5×10^3 cells/well, into the wells of a 96-well microtiter plate. The cells were then infected with HIV virus (either mutant or WT), at a multiplicity of infection (MOI) previously determined to provide complete cell killing by 6 days of culture post-infection (e.g., MOI of 0.01-0.05). Each of the HIV isolates was pre-titered to induce equivalent levels of infection based on cell killing or virus production, prior to their use in these assays. A range of test compound concentrations was added to the wells in triplicate (e.g., serial half-log dilutions) to evaluate inhibition of HIV infection. Controls for each assay included drug controls (drug colorimetric control wells), drug cytotoxicity control wells (cells with drug), virus control wells (cells with virus), and cell viability controls (cells only). Positive control drugs (e.g. AZT and ddC) were also run in parallel.
(§3) After six days of incubation at 37° C., cell viability was determined spectrophotometrically at 450 nm for each well, using the metabolic reduction of XTT to a soluble colored formazan. (See, Gartner and Popovic, “Virus Isolation and Production, in Aldovini and Walker (eds.), Techniques in HIV Research, Stockton Press, NY, pp. […] [1991]; and Nara and Fischinger, “Quantitative Infectivity Assay for HIV-1 and HIV-2, ” Nature 332:469-470 [1988]).
(§4) The in vitro therapeutic index (TI50) was defined as the fold-difference between the EC50 and IC50. The results for the various compounds are included in FIGS. 8 and 19.

HIV-1 WT RT = HIV-1 WT RT (Human immunodeficiency virus type 1 group M subtype B, UniProt P03366); assay: biochemical; assay type: biochemical
HIV-1 WT virus (NL4-3) = assay: microbe, parasite or virus in culture; assay type: cell-based; conditions: Human immunodeficiency virus 1, NL43, CEM-SS
Outline: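 CEM-SS cells (5×10^3/well) infected with HIV-1 NL4-3 at MOI giving complete killing by day 6 (e.g., 0.01-0.05), with half-log compound dilutions in triplicate. After six days at 37° C., viability measured by XTT reduction at 450 nm; CIC50 is 50% inhibitory concentration of cytopathic killing.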

HIV-1 isolate Y188H = assay: Cytopathic cell killing assay, isolate Y188H; assay type: cell-based; conditions: Human immunodeficiency virus 1, read-out: EC50, isolate Y188H
Excerpt: as §1, §2, §3, §4

HIV-1 isolate V106A = assay: Cytopathic cell killing assay, MT-4 cells, isolate V106A; assay type: cell-based
Excerpt: as §1
(§5) In this Example, the antiviral and cellular toxicity of NNRTIs was investigated, using the cytopathic cell killing assay described by Yang (Yang et al., “Characteristics of a Group of Non-nucleoside Reverse Transcriptase Inhibitors with Structural Diversity and Potent Anti-Human Immunodeficiency Virus Activity,” Leukemia 9:S75-S85 [1995]). Briefly, in this method cells (e.g., the CEM-SS cell line, available from the NIAID AIDS Research and Reference Program [ARRRP]) were seeded at a density of 5×10^3 cells/well, into the wells of a 96-well microtiter plate. The cells were then infected with HIV virus (either mutant or WT), at a multiplicity of infection (MOI) previously determined to provide complete cell killing by 6 days of culture post-infection (e.g., MOI of 0.01-0.05). Each of the HIV isolates was pre-titered to induce equivalent levels of infection based on cell killing or virus production, prior to their use in these assays. A range of test compound concentrations was added to the wells in triplicate (e.g., serial half-log dilutions) to evaluate inhibition of HIV infection. […]
(§6) After six days of incubation at 37° C., cell viability was determined spectrophotometrically at 450 nm for each well, using the metabolic reduction of XTT to a soluble colored formazan. (See, Gartner and Popovic, “Virus Isolation and Production, in Aldovini and Walker (eds.), Techniques in HIV Research, Stockton Press, NY, pp. […] [1991]; and Nara and Fischinger, “Quantitative Infectivity Assay for HIV-1 and HIV-2, ” Nature 332:469-470 [1988]). […]

HIV-1 isolate M184I = assay: Cytopathic cell killing assay, isolate M184I; assay type: cell-based; conditions: Human immunodeficiency virus 1, read-out: EC50, isolate M184I
Excerpt: as §1, §5, §6

HIV-1 isolate V108I = assay: Cytopathic cell killing assay, MT-4 cells, isolate V108I; assay type: cell-based
Outline: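 Cells (e.g., CEM-SS) were seeded at 5×10^3 cells/well and infected with pre-titered HIV isolates at an MOI giving complete killing by day 6 (e.g., 0.01-0.05), with half-log compound dilutions in triplicate. Viability was read after six days at 37° C by XTT reduction at 450 nm; […].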

[1] = Human immunodeficiency virus 1, MT4, read-out: EC50, isolate K103N, Table 8, MT-4 cells

| SMILES | EC50 (HIV-1 isolate K103N; [1]) | EC50 (HIV-1 isolate V179D; Human immunodeficiency virus 1, MT4, read-out: EC50, isolate V179D, Table 8, MT-4 cells) | IC50 (HIV-1 WT RT) | inhibition at 1 µM (HIV-1 WT RT; Table 7, 1 μM drug, WT HIV-1 RT, read-out: % inhibn (1 μM)) | EC50 (HIV-1 WT virus (NL4-3); Table 7, drug concentration required to reduce cell killing or virus production by 50%, WT, read-out: EC50) | EC50 (HIV-1 isolate Y188H) | EC50 (HIV-1 isolate V106A; Human immunodeficiency virus 1, MT4, read-out: EC50, isolate V106A, Table 8, MT-4 cells) | EC50 (HIV-1 isolate M184I) | EC50 (HIV-1 isolate V108I; Human immunodeficiency virus 1, MT4, read-out: EC50, isolate V1081, Table 8, MT-4 cells) | EC50 (HIV-1 isolate K103N; Human immunodeficiency virus 1, MT4, read-out: EC50, isolate K103N, Table 10, values in μM) | EC50 (HIV-1 isolate V179D; Human immunodeficiency virus 1, MT4, read-out: EC50, isolate V179D) | EC50 (HIV-1 WT virus (NL4-3)) | EC50 (HIV-1 isolate V106A; Human immunodeficiency virus 1, MT4, read-out: EC50, isolate V106A) | EC50 (HIV-1 isolate V108I; Human immunodeficiency virus 1, MT4, read-out: EC50, isolate V108I) | EC50 (HIV-1 isolate V108I; Human immunodeficiency virus 1, MT4, read-out: EC50, isolate V1081) |
| --- | --- | --- | --- | --- | --- | --- | --- | --- | --- | --- | --- | --- | --- | --- | --- |
| Nc1cccc2c1nc(-c1c(F)cccc1F)n2Cc1c(F)cccc1F [Compound 3300, 4-amino-1-(2,6-difluorobenzyl)-2-(2,6-difluorophenyl)benzimidazole] | > 20 µM | 0.3 µM | 0.28 µM | 69% | 0.46 µM | > 50 µM | > 20 µM | 0.65 µM | > 20 µM |  |  |  |  |  |  |
| CCc1cccc2c1nc(-c1c(F)cccc1F)n2Cc1c(F)cccc1F [Compound 4011, 1-(2,6-difluorobenzyl)-2-(2,6-difluorophenyl)-4-ethylbenzimidazole] | > 20 µM |  |  |  |  | 13.2 µM |  | 0.96 µM |  | > 50 µM | 1.8 µM | 0.82 µM | > 20 µM | > 50 µM | 3 µM |
